Data reported in patent US9402399B2, “Pesticidal mixtures including isoxazoline derivatives” (Syngenta Participations AG, priority 2011, dated 2016).

Tested on: Tetranychus urticae
Experiment: Tetranychus urticae (Two Spotted Spider Mite) contact/feeding activity, adult mortality on sprayed bean plants
Type: in vivo
Method: Tetranychus urticae (Two Spotted Spider Mite)
(Contact/Feeding Activity)
Bean plants are infested with mite populations of mixed ages. 1 day after infestation, plants are treated in a spray chamber with diluted test solutions. 1 and 8 days later, samples are checked for adult mortality. 2 replicates per treatment were evaluated.
Data is not shown for experiments where there was no insect mortality when the compounds were applied alone and in combination. When a compound applied alone gave no control at a particular rate, it is assumed that lower rates of that compound alone also give no control.

Compound: CC1(C)[C@H](C(=O)O[C@H](C#N)c2cccc(Oc3ccccc3)c2)[C@@H]1/C=C(\Cl)C(F)(F)F (racemic) [LCYH, lambda cyhalothrin]
- LCYH observed control % (LCYH alone 0.781 ppm): 0%
- LCYH observed control % (LCYH alone 1.562 ppm): 0%
- LCYH observed control % (LCYH alone 3.125 ppm): 0%
- LCYH observed control % (LCYH alone 6.25 ppm): 25%
- LCYH observed control % (LCYH alone 12.5 ppm): 75%
- LCYH observed control % (LCYH alone 25 ppm): 80%
- LCYH observed control % (LCYH alone 50 ppm): 85%
- LCYH observed control % (LCYH alone 100 ppm): 95%

Compound: CC(C)c1cc(Oc2ccccc2)cc(C(C)C)c1NC(=S)NC(C)(C)C [DFN, diafenthiuron]
- DFN observed control % (DFN alone 1.562 ppm): 0%
- DFN observed control % (DFN alone 3.125 ppm): 0%
- DFN observed control % (DFN alone 6.25 ppm): 25%
- DFN observed control % (DFN alone 12.5 ppm): 60%
- DFN observed control % (DFN alone 25 ppm): 95%

Compound: CN1COCN(Cc2cnc(Cl)s2)/C1=N\[N+](=O)[O-] [TMX, thiamethoxam]
- TMX observed control % (TMX alone 50 ppm): 0%
- TMX observed control % (TMX alone 100 ppm): 0%
- TMX observed control % (TMX alone 200 ppm): 0%
- TMX observed control % (TMX alone 400 ppm): 0%
